Residue numbers refer to the chain shown, from its start. Counter-ions that a name gives are not always drawn.
Key:
Experiment in all cases: SIRT1 inhibition assay, OAcADPr mass spectrometry
Assay type in all cases: biochemical
[1] = biological target: T1, full-length hSIRT1 T219A (Homo sapiens, UniProt Q96EB6, T219A)
T1 construct: The following point mutants of full-length hSIRT1 were generated; His6 (C); made in house
T1 sequence (Q96EB6 1-747 T219A): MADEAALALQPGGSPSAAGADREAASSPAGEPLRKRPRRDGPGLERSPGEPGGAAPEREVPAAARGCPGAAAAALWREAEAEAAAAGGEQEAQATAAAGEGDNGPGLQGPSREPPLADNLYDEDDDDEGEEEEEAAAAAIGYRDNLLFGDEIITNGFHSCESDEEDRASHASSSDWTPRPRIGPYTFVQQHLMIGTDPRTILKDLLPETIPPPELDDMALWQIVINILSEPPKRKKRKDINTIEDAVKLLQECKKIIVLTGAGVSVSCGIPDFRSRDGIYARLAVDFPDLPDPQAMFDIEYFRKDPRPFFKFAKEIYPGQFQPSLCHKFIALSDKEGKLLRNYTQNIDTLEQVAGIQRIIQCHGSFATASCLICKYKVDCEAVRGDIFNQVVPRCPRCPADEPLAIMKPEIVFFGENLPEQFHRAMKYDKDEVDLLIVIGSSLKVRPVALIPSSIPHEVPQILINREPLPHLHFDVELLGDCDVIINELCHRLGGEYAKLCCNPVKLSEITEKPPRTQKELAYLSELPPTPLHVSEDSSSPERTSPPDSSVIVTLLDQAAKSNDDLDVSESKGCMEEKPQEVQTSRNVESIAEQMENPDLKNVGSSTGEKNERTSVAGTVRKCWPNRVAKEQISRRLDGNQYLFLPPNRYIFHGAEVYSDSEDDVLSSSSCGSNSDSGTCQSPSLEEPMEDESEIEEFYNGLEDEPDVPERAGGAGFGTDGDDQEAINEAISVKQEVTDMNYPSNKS
Experimental: (§1) SIRT1 activation and inhibition assays were run in reaction buffer with 0.05% BSA at 25° C. and analyzed using the OAcADPr assay. Enzyme and compound were pre-incubated for 20 minutes before addition of substrates.

[2] = biological target: T2, full-length hSIRT1 Q222A (Homo sapiens, UniProt Q96EB6, Q222A)
T2 construct: The following point mutants of full-length hSIRT1 were generated; made in house
T2 sequence (Q96EB6 1-747 Q222A): T1 sequence (Q96EB6 1-747 T219A) with A219T, Q222A
Experimental: as §1

[3] = biological target: T3, full-length hSIRT1 E230A (Homo sapiens, UniProt Q96EB6, E230A)
T3 construct: His6 (C); made in house
T3 sequence (Q96EB6 1-747 E230A): T1 sequence (Q96EB6 1-747 T219A) with A219T, E230A
Experimental: as §1

Question: Which results are given for `CCCC[C@H](NC(=O)[C@H](CC(C)C)NC(=O)[C@H](CCCCNC(=O)C(F)(F)F)NC(=O)[C@H](CCCCN)NC(=O)[C@H](Cc1c[nH]cn1)NC(=O)[C@H](CCCNC(=N)N)NC(C)=O)C(=O)N[C@@H](Cc1ccccc1)C(N)=O` [TFA-p53 7-mer, Ac-RHK-K^TFA-L-Nle-F-NH2]?
Answer: IC50 [1]: 0.49 ± 0.02 µM; IC50 [2]: 0.63 ± 0.05 µM; IC50 [3]: 1.3 ± 0.4 µM

Source: US9765075B2, “Substituted bridged urea analogs as sirtuin modulators” (GLAXOSMITHKLINE LLC, priority 2013, dated 2017)
